{"source": "patent US20070160981A1", "about": "(priority 2005, published 2007)", "key": {"[1]": {"molecular_target": "T1, SARS-CoV PLP2 (Severe acute respiratory syndrome coronavirus, UniProt P0C6U8)", "assay_type": "biochemical"}, "[2]": {"molecular_target": "T1, SARS-CoV PLP2"}}, "note": "Like-named read-outs stand apart in the source and are kept apart here."}
{"compound": "Nc1nc(S)c2[nH]cnc2n1", "note": "[2-amino-6-mercaptopurine]", "values": [{"measurement": "found in the screen for inhibitor of SARS-CoV PLP2", "setting": "[1]", "value": "found"}]}
{"compound": "Sc1ncnc2nc[nH]c12", "note": "[6-mercaptopurine]", "values": [{"measurement": "found in the screen for inhibitor of SARS-CoV PLP2", "setting": "[1]", "value": "found"}]}
{"compound": "Cn1cnc([N+](=O)[O-])c1Sc1ncnc2nc[nH]c12", "note": "[Azathioprine]", "values": [{"measurement": "found in the screen for inhibitor of SARS-CoV PLP2", "setting": "[1]", "value": "found"}]}
{"compound": "[Ca]", "note": "[Ca]", "values": [{"measurement": "effects on the activity of SARS-CoV PLP2", "setting": "[1]", "value": "no effects"}]}
{"compound": "O=NN(CCCl)C(=O)NCCCl", "note": "[Carmustine]", "values": [{"measurement": "found in the screen for inhibitor of SARS-CoV PLP2", "setting": "[1]", "value": "found"}]}
{"compound": "[Co]", "note": "[Co]", "values": [{"measurement": "effects on the activity of SARS-CoV PLP2", "setting": "[1]", "value": "no effects"}]}
{"compound": "S=C([S-])N(Cc1ccccc1)Cc1ccccc1.S=C([S-])N(Cc1ccccc1)Cc1ccccc1.[Zn+2]", "note": "[Dibenzyl dithiocarbamic Zn]", "values": [{"measurement": "inhibition of SARS-CoV PLP2, in words", "setting": "[1]", "value": "effective in inhibiting"}]}
{"compound": "O=C([O-])c1ccccc1-c1c2cc(Br)c(=O)cc-2oc2[c]([Hg+])c([O-])c(Br)cc12.[Na+].[Na+].[OH-]", "note": "[Merbromin]", "values": [{"measurement": "found in the screen for inhibitor of SARS-CoV PLP2", "setting": "[1]", "value": "found"}]}
{"compound": "[Mg]", "note": "[Mg]", "values": [{"measurement": "effects on the activity of SARS-CoV PLP2", "setting": "[1]", "value": "no effects"}]}
{"compound": "[Mn]", "note": "[Mn]", "values": [{"measurement": "effects on the activity of SARS-CoV PLP2", "setting": "[1]", "value": "no effects"}]}
{"compound": "CCN(C(=S)[S-])c1ccccc1.CCN(C(=S)[S-])c1ccccc1.[Zn+2]", "note": "[N-ethyl-N-phenyldithiocarbamic acid Zn]", "values": [{"measurement": "inhibition of SARS-CoV PLP2, in words", "setting": "[1]", "value": "effective in inhibiting"}]}
{"compound": "CCN1C(=O)C=CC1=O", "note": "[N-ethylmaleimide]", "values": [{"measurement": "effective in inhibiting SARS-CoV PLP2", "setting": "[1]; 1 mM", "value": "effective"}]}
{"compound": "[Ni]", "note": "[Ni]", "values": [{"measurement": "effects on the activity of SARS-CoV PLP2", "setting": "[1]", "value": "no effects"}]}
{"compound": "CN(C)C(=S)SSC(=S)N(C)C", "note": "[Thiram]", "values": [{"measurement": "found in the screen for inhibitor of SARS-CoV PLP2", "setting": "[1]", "value": "found"}]}
{"compound": "[Zn+2]", "note": "[Zinc ion]", "values": [{"measurement": "IC50", "setting": "[1]", "value": 1300, "unit": "nM"}]}
{"compound": "CC(C)C[C@H](NC(=O)[C@@H](NC(=O)N[C@@H](Cc1ccccc1)C(=O)O)[C@@H]1CCN=C(N)N1)C(=O)N[C@H](C=O)Cc1ccccc1", "note": "[chymostatin]", "values": [{"measurement": "effective in inhibiting SARS-CoV PLP2", "setting": "[1]; 1 mM", "value": "none of them was effective"}]}
{"compound": "[O-]n1ccccc1=S.[O-]n1ccccc1=S.[Zn+2]", "note": "[hydroxypridine-2-thione Zn]", "values": [{"measurement": "inhibition of SARS-CoV PLP2, in words", "setting": "[1]", "value": "effective in inhibiting"}]}
{"compound": "CC(=O)N[C@@H](CC(C)C)C(=O)N[C@@H](CC(C)C)C(=O)N[C@H](C=O)CCCNC(=N)N", "note": "[leupeptin]", "values": [{"measurement": "effective in inhibiting SARS-CoV PLP2", "setting": "[1]; 0.1 mM", "value": "none of them was effective"}]}
{"compound": "FRLKGGAPI [FRLKGG-API]", "values": [{"measurement": "percentage of the cleavage after 2 hours of digestion", "setting": "[2]", "value": 36, "unit": "%"}, {"measurement": "percentage of the cleavage after 12 hours of digestion", "setting": "[2]", "value": 85, "unit": "%"}, {"measurement": "Cleavage % 2 hours", "setting": "[2]; pH 6.8", "value": "36.2 ± 6.4", "unit": "%"}, {"measurement": "Cleavage % 12 hours", "setting": "[2]; pH 6.8", "value": "85.1 ± 4.9", "unit": "%"}]}
{"compound": "FRLKGGAPIK [FRLKGG-APIK]", "values": [{"measurement": "percentage of the cleavage after 2 hours of digestion", "setting": "[2]", "value": 50, "unit": "%"}, {"measurement": "percentage of the cleavage after 12 hours of digestion", "setting": "[2]", "value": 100, "unit": "%"}, {"measurement": "Cleavage % 2 hours", "setting": "[2]; pH 6.8", "value": "49.9 ± 2.6", "unit": "%"}, {"measurement": "Cleavage % 12 hours", "setting": "[2]; pH 6.8", "value": "100 ± 0.0", "unit": "%"}]}
{"compound": "FRLKGGAPIKGV", "values": [{"measurement": "Cleavage % 2 h", "setting": "[2]", "value": "70.1 ± 7.4", "unit": "%"}, {"measurement": "Cleavage % 2 hours", "setting": "[2]", "value": "70 ± 7", "unit": "%"}, {"measurement": "Cleavage % 12 h", "setting": "[2]", "value": "100 ± 0.0", "unit": "%"}, {"measurement": "Cleavage % 12 hours", "setting": "[2]", "value": 100, "unit": "%"}, {"measurement": "percentage of the cleavage after 2 hours of digestion", "setting": "[2]", "value": 70, "unit": "%"}, {"measurement": "percentage of the cleavage after 12 hours of digestion", "setting": "[2]", "value": 100, "unit": "%"}, {"measurement": "Cleavage % 2 hours", "setting": "[2]; pH 6.8", "value": "70.1 ± 7.4", "unit": "%"}, {"measurement": "Cleavage % 12 hours", "setting": "[2]; pH 6.8", "value": "100 ± 0.0", "unit": "%"}]}
{"compound": "ISLKGGKIVSTC [Gly2740-Lys2741]", "values": [{"measurement": "Cleavage % 2 hours", "setting": "[2]", "value": "7 ± 1", "unit": "%"}, {"measurement": "Cleavage % 12 hours", "setting": "[2]", "value": "29 ± 4", "unit": "%"}, {"measurement": "percentage of the cleavage after 2 hours of digestion", "setting": "[2]", "value": 7, "unit": "%"}, {"measurement": "percentage of the cleavage after 12 hours of digestion", "setting": "[2]", "value": 29, "unit": "%"}]}
{"compound": "LKGGAPIK", "values": [{"measurement": "percentage of the cleavage after 2 hours of digestion", "setting": "[2]", "value": 11, "unit": "%"}, {"measurement": "percentage of the cleavage after 12 hours of digestion", "setting": "[2]", "value": 45, "unit": "%"}, {"measurement": "Cleavage % 2 hours", "setting": "[2]; pH 6.8", "value": "11.4 ± 4.3", "unit": "%"}, {"measurement": "Cleavage % 12 hours", "setting": "[2]; pH 6.8", "value": "44.7 ± 3.5", "unit": "%"}]}
{"compound": "NNVFRLKGGAPIKGVTFG [N N V F R L K G G A P I K G V T F G]", "values": [{"measurement": "Cleavage % 2 hours", "setting": "[2]", "value": "60.5 ± 0.7", "unit": "%"}, {"measurement": "Cleavage % 12 hours", "setting": "[2]", "value": "100 ± 0.0", "unit": "%"}]}
{"compound": "NVFRLKGGAPIKGVTF [N V F R L K G G A P I K G V T F]", "values": [{"measurement": "Cleavage % 2 hours", "setting": "[2]", "value": "63.0 ± 1.4", "unit": "%"}, {"measurement": "Cleavage % 12 hours", "setting": "[2]", "value": "100 ± 0.0", "unit": "%"}]}
{"compound": "RLKGGAPIKG [RLKGG-APIKG]", "values": [{"measurement": "percentage of the cleavage after 12 hours of digestion", "setting": "[2]", "value": 56, "unit": "%"}, {"measurement": "Cleavage % 2 hours", "setting": "[2]; pH 6.8", "value": "14.8 ± 4.1", "unit": "%"}, {"measurement": "Cleavage % 12 hours", "setting": "[2]; pH 6.8", "value": "56.4 ± 5.6", "unit": "%"}]}
{"compound": "VFRLKGGAPIK", "values": [{"measurement": "Cleavage % 2 hours", "setting": "[2]; pH 6.8", "value": "52.9 ± 3.5", "unit": "%"}, {"measurement": "Cleavage % 12 hours", "setting": "[2]; pH 6.8", "value": "100 ± 0.0", "unit": "%"}]}
{"compound": "VFRLKGGAPIKGVT [V F R L K G G A P I K G V T]", "values": [{"measurement": "Cleavage % 2 hours", "setting": "[2]; pH 6.8", "value": "67.6 ± 9.0", "unit": "%"}, {"measurement": "Cleavage % 12 hours", "setting": "[2]; pH 6.8", "value": "100 ± 0.0", "unit": "%"}]}
{"compound": "cystatin", "values": [{"measurement": "effective in inhibiting SARS-CoV PLP2", "setting": "[1]", "value": "none of them was effective"}]}
